The values below come from US12390449B2, “Substituted 2-aminobenzimidazoles analogs as antibiofilm agents” (priority 2018, dated 2025).

Where a name gives a salt, the structure may show the parent alone. Read-outs that look alike come from different tables or passages of the source.

As a reminder, the IC50 is the concentration that gives 50% inhibition.

The experiment relates to Salmonella typhimurium ATCC14028 Biofilms. Nature of the experiment: Inhibitory effect of test compounds on Salmonella typhimurium ATCC14028 biofilms (crystal violet, 96-well). Format: cell-based. The settings on record: for antibiofilm activity (in words): compared with parent compound 1. How it is done: Procedure to Determine the Inhibitory Effect of Test Compounds on Salmonella typhimurium ATCC14028 Biofilms: […] Stock solutions of predetermined concentrations of the test compounds were then made in 1 mL of bacterial culture. […] Sample plates were then incubated for 24 h at 30° C. After incubation, the medium was discarded from the wells and the plates were washed thoroughly with water. Plates were then stained with 110 μL of 0.1% solution of crystal violet (CV) and then incubated at ambient temperature for 30 min. Plates were washed with water again and the remaining stain was solubilized with 200 μL of 95% ethanol. A sample of 125 μL of solubilized CV stain from each well was transferred to the corresponding wells of a polystyrene microtiter dish. Biofilm inhibition was quantitated by measuring the OD540 of each well in which a negative control lane wherein no biofilm was formed served as a background and was subtracted out.

Setting [1] is: Salmonella enterica, 24 h, read-out: IC50 (μM), inhibition of biofilm formation, S. typhimurium ATCC14028, 24 h at 30° C., crystal violet OD540.
[2] abbreviates: read-out: IC50 (μM), inhibition of biofilm formation, S. typhimurium ATCC14028, 24 h at 30° C., crystal violet OD540, hydrochloride.
Setting [3] is: read-out: IC50 (μM), inhibition of biofilm formation, S. typhimurium ATCC14028, 24 h at 30° C., crystal violet OD540.

As to `Nc1nc2cc(NC(=O)c3cc(Br)cc(Br)c3)ccc2n1CCCc1ccccc1` [Compound 10c, N-(2-Amino-1-(3-phenylpropyl)-1H-benzo[d]imidazol-5-yl)-3,5-dibromobenzamide hydrochloride], the IC50 is, setting by setting: under setting [1], less than 7 µM; (read-out: IC50 (μM), inhibition of biofilm formation, S. typhimurium ATCC14028, 24 h at 30° C., crystal violet OD540, listed as 15c, hydrochloride) 5.58 ± 0.21 µM.

Take `CCCCCc1ccc(C(=O)Nc2ccc3[nH]c(N)nc3c2)cc1` [Compound 5o, N-(2-Amino-1H-benzo[d]imidazol-5-yl)-4-pentylbenzamide hydrochloride]: the IC50 under setting [1] fell in the range of 20 to 40 µM.

With `CCCCCc1ccc(C(=O)Nc2ccc3c(c2)nc(N)n3CCc2c[nH]c3ccccc23)cc1` [Compound 5e, N-(1-(2-(1H-Indol-3-yl)ethyl)-2-amino-1H-benzo[d]imidazol-5-yl)-4-pentylbenzamide hydrochloride], the IC50 under setting [1] fell in the range of 10 to 15 µM.

With `CCCCOc1ccc(C(=O)Nc2ccc3c(c2)nc(N)n3CCCc2ccccc2)cc1` [Compound 10j, N-(2-Amino-1-(3-phenylpropyl)-1H-benzo[d]imidazol-5-yl)-4-butoxybenzamide hydrochloride], under setting [1], the IC50 lay within 15 to 20 µM.

For the compound `CCCCCCCCc1ccc(C(=O)Nc2ccc3c(c2)nc(N)n3CCCc2ccccc2)cc1` [Compound 10r, N-(2-Amino-1-(3-phenylpropyl)-1H-benzo[d]imidazol-5-yl)-4-octylbenzamide hydrochloride], the IC50 runs as follows: under setting [1], more than 40 µM; under setting [2], more than 50 µM.

For `CCCCCc1ccc(C(=O)Nc2ccc3c(c2)nc(N)n3CCc2cnc[nH]2)cc1` [Compound 5j, N-(1-(2-(1H-Imidazol-5-yl)ethyl)-2-amino-1H-benzo[d]imidazol-5-yl)-4-pentylbenzamide dihydrochloride], the half-inhibitory concentration (IC50) under setting [1] is 20 to 40 µM.

As for `CCCCCCCc1ccc(C(=O)Nc2ccc3c(c2)nc(N)n3CCCc2ccccc2)cc1` [Compound 10m, N-(2-Amino-1-(3-phenylpropyl)-1H-benzo[d]imidazol-5-yl)-4-heptylbenzamide hydrochloride], the IC50 under setting [1] lay within 15 to 20 µM.

As to `CCCCCCCCn1c(N)nc2cc(NC(=O)c3ccc(CCCCC)cc3)ccc21` [Compound 5a, N-(2-Amino-1-octyl-1H-benzo[d]imidazol-5-yl)-4-pentylbenzamide hydrochloride], the IC50 under setting [1] was 6.66 ± 0.32 µM.

Consider `CCCOc1ccc(C(=O)Nc2ccc3c(c2)nc(N)n3CCCc2ccccc2)cc1` [Compound 10g, N-(2-Amino-1-(3-phenylpropyl)-1H-benzo[d]imidazol-5-yl)-4-propoxybenzamide hydrochloride], for which the IC50 under setting [1] was in the range of 10 to 15 µM.

On to `CCCCCCCCCCCCn1c(N)nc2cc(NC(=O)c3ccc(CCCCC)cc3)ccc21.Cl` [Compound 5n, N-(2-Amino-1-dodecyl-1H-benzo[d]imidazol-5-yl)-4-pentylbenzamide hydrochloride], for which the “antibiofilm activity (in words)” value is reported as “reduced or completely abolished antibiofilm activity”. In addition, under setting [1], the IC50 is more than 50 µM.

Turning to `CCCCCCc1ccc(C(=O)Nc2ccc3c(c2)nc(N)n3CCCc2ccccc2)cc1` [Compound 10l, N-(2-Amino-1-(3-phenylpropyl)-1H-benzo[d]imidazol-5-yl)-4-hexylbenzamide hydrochloride], the IC50 under setting [1] was in the range of 15 to 20 µM.

As to `CCCCCc1ccc(C(=O)Nc2ccc3c(c2)nc(N)n3CCc2ccccc2)cc1` [Compound 1, N-(2-Amino-1-phenethyl-1H-benzo[d]imidazol-5-yl)-4-pentylbenzamide hydrochloride], under setting [1], the IC50 worked out at 13.1 ± 0.6 µM.

On to `CCCCCc1ccc(C(=O)Nc2ccc3c(c2)nc(N)n3CCCCc2ccccc2)cc1` [Compound 5b, N-(2-Amino-1-(4-phenylbutyl)-1H-benzo[d]imidazol-5-yl)-4-pentylbenzamide hydrochloride], for which the IC50 under setting [1] was 9.59 ± 0.23 µM.

For the compound `CCCCCc1ccc(C(=O)Nc2ccc3nc(N)n(C(C)C)c3c2)cc1` [Compound 9e, N-(2-Amino-1-isopropyl-1H-benzo[d]imidazol-6-yl)-4-pentylbenzamide hydrochloride], under setting [1], the concentration for half-maximal inhibition (IC50) is 20 to 40 µM.

As for `CCCCCc1ccc(C(=O)Nc2ccc3nc(N)n(C)c3c2)cc1` [Compound 9c, N-(2-Amino-1-methyl-1H-benzo[d]imidazol-6-yl)-4-pentylbenzamide hydrochloride], the IC50 under setting [1] was 20 to 40 µM.

`CCCCCc1ccc(C(=O)Nc2ccc3c(c2)nc(N)n3C2CCCCC2)cc1` [Compound 5h, N-(2-Amino-1-cyclohexyl-1H-benzo[d]imidazol-5-yl)-4-pentylbenzamide hydrochloride]: the IC50 under setting [1] was 15 to 20 µM.

Regarding `Nc1nc2cc(NC(=O)c3ccc(Br)c(Br)c3)ccc2n1CCCc1ccccc1` [Compound 10b, N-(2-Amino-1-(3-phenylpropyl)-1H-benzo[d]imidazol-5-yl)-3,4-dibromobenzamide hydrochloride], the IC50 is less than 7 µM under setting [1] and 5.38 ± 0.79 µM (read-out: IC50 (μM), inhibition of biofilm formation, S. typhimurium ATCC14028, 24 h at 30° C., crystal violet OD540, listed as 15b, hydrochloride).

In the case of `CCCCCCCCCCC(=O)Nc1ccc2c(c1)nc(N)n2CCCc1ccccc1` [Compound 10i, N-(2-Amino-1-(3-phenylpropyI)-1H-benzo[d]imidazol-5-yhundecanamide hydrochloride], the IC50 under setting [3] lay within 10 to 15 µM.

Regarding `CCCCCc1ccc(C(=O)Nc2ccc3nc(N)n(CCCC)c3c2)cc1` [Compound 9a, N-(2-Amino-1-butyl-1H-benzo[d]imidazol-6-yl)-4-pentylbenzamide hydrochloride], the IC50 under setting [1] was in the range of 10 to 15 µM.

Regarding `CCCCCCCCCCCCCC(=O)Nc1ccc2c(c1)nc(N)n2CCCc1ccccc1` [Compound 10t, N-(2-Amino-1-(3-phenylpropyl)-1H-benzo[d]imidazol-5-yhtetradecanamide hydrochloride], the 50% inhibitory concentration (IC50) under setting [2] was more than 50 µM.

With `Nc1nc2cc(C(=O)Nc3ccc(Cl)c(Cl)c3)ccc2n1CCCc1ccccc1` [Compound 15, 2-Amino-N-(3,4-dichlorophenyl)-1-(3-phenylpropyl)-1H-benzo[d]imidazole-5-carboxamide hydrochloride], under setting [1], the half-inhibitory concentration (IC50) worked out at 12.6 ± 1.8 µM.

For the compound `CCCCCc1ccc(C(=O)Nc2ccc3c(c2)nc(N)n3CC(C)C)cc1` [Compound 5d, N-(2-Amino-1-isbutyl-1H-benzo[d]imidazol-5-yl)-4-pentylbenzamide hydrochloride], the IC50 under setting [3] was 10 to 15 µM.

In the case of `CCCCCc1ccc(C(=O)Nc2ccc3c(c2)nc(N)n3C)cc1.Cl` [Compound 5l, N-(2-Amino-1-methyl-1H-benzo[d]imidazol-5-yl)-4-pentylbenzamide hydrochloride], the “antibiofilm activity (in words)” value was “reduced or completely abolished antibiofilm activity”. In addition, under setting [1], the IC50 was more than 40 µM.

On to `CCCCCCCCC(=O)Nc1ccc2c(c1)nc(N)n2CCCc1ccccc1` [Compound 10n, N-(2-Amino-1-(3-phenylpropyl)-1H-benzo[d]imidazol-5-yl)nonanamide hydrochloride], for which the IC50 under setting [1] fell in the range of 15 to 20 µM.

Regarding `CCCCCCCC(=O)Nc1ccc2c(c1)nc(N)n2CCCc1ccccc1` [Compound 10q, N-(2-Amino-1-(3-phenylpropyl)-1H-benzo[d]imidazol-5-yl)octanamide hydrochloride], the IC50 under setting [1] is more than 40 µM.

Take `CCCCCCn1c(N)nc2ccc(NC(=O)c3ccc(CCCCC)cc3)cc21` [Compound 9b, N-(2-Amino-1-hexyl-1H-benzo[d]imidazol-6-yl)-4-pentylbenzamide hydrochloride]: the IC50 under setting [1] was 10 to 15 µM.

With `CCCCc1ccc(C(=O)Nc2ccc3c(c2)nc(N)n3CCCc2ccccc2)cc1` [Compound 10f, N-(2-Amino-1-(3-phenylpropyl)-1H-benzo[d]imidazol-5-yl)-4-butylbenzamide hydrochloride], the IC50 under setting [1] lay within 10 to 15 µM.

In the case of `CCCCCc1ccc(C(=O)Nc2ccc3c(c2)nc(N)n3C2CCCC2)cc1` [Compound 5g, N-(2-Amino-1-cyclopentyl-1H-benzo[d]imidazol-5-yl)-4-pentylbenzamide hydrochloride], the IC50 under setting [1] fell in the range of 15 to 20 µM.

For `CCCCCCCCCCCC(=O)Nc1ccc2c(c1)nc(N)n2CCCc1ccccc1` [Compound 10s, N-(2-Amino-1-(3-phenylpropyl)-1H-benzo[d]imidazol-5-yhdodecanamide hydrochloride], the IC50 under setting [2] is more than 50 µM.

For the compound `CCCCCc1ccc(C(=O)Nc2ccc3c(c2)nc(N)n3CCCC)cc1` [Compound 5f, N-(2-Amino-1-butyl-1H-benzo[d]imidazol-5-yl)-4-pentylbenzamide hydrochloride], under setting [1], the IC50 lay within 15 to 20 µM.

For `CCCCCc1ccc(C(=O)Nc2ccc3nc(N)n(CC)c3c2)cc1` [Compound 9d, N-(2-Amino-1-ethyl-1H-benzo[d]imidazol-6-yl)-4-pentylbenzamide hydrochloride], under setting [1], the half-maximal inhibitory concentration (IC50) lay within 20 to 40 µM.

Regarding `CCc1ccc(C(=O)Nc2ccc3c(c2)nc(N)n3CCCc2ccccc2)cc1` [Compound 10o, N-(2-Amino-1-(3-phenylpropyl)-1H-benzo[d]imidazol-5-yl)-4-ethylbenzamide hydrochloride], the IC50 under setting [1] was in the range of 20 to 40 µM.

In the case of `CCCCCCCCCC(=O)Nc1ccc2c(c1)nc(N)n2CCCc1ccccc1` [Compound 10h, N-(2-Amino-1-(3-phenylpropyl)-1H-benzo[d]imidazol-5-y0decanamide hydrochloride], the IC50 under setting [3] is 10 to 15 µM.

With `CCCCCCn1c(N)nc2cc(NC(=O)c3ccc(CCCCC)cc3)ccc21` [Compound 5c, N-(2-Amino-1-hexyl-1H-benzo[d]imidazol-5-yl)-4-pentylbenzamide hydrochloride], under setting [1], the IC50 was found to be 10.8 ± 0.56 µM.
